Measurements from US20150352207A1, “USE OF ANTIBODIES AGAINST ICAM-1 IN COMBINATION WITH AN ANTI CANCER DRUG IN THE TREATMENT OF PATIENTS” (BIOINVENT INTERNATIONAL AB, priority 2013, published 2015).

Key:
[1] = system: ICAM-1 on MM cells (CD38+/mCD45-); experiment: ICAM-1 expression on myeloma cells from treated mice (disseminated RPMI-8226 model, flow cytometry); assay type: in vivo, SCID mice; conditions: tumor cells isolated from mice treated with standard of care therapies
Description: Organs for FACS analysis were collected at scarification of mice, and cells from tissues were prepared by mechanistic dissociation and dispase/collagenase enzymatic digestion (Gibco, France). Cells were stained with anti-human CD38 antibody (PerCP-Cy5, Becton Dickinson), an anti-mouse CD45 (PE, Becton Dickinson) and human ICAM-1 (B11 IgG1 AF647, BioInvent) and incubated in the dark for 15 min at room temperature. After the incubation, cells were washed twice and the surface fluorescence of cells was analyzed with a flow cytometer apparatus (LSRII) at the Flow Cytometry Facility of the University of Burgundy.
200 μl containing 10×10^6 of RPMI 8226 tumour cells was intravenously injected into the caudal vein of female SCID mice. The mice had been subjected to a whole body irradiation of mice (1.8 Gy, ^60Co, BioMEP) 24 to 72 hours prior to cell injection. At D1, tumor injected mice were randomized according to their individual body weight. All treatment started day 5 after tumor cell administration except for ALKERAN®, which started at day 10. All treatments were injected in a dose volume of 10 ml/kg/inj. Mice received one of the following treatments:
The health status and behavior of mice was recorded every day and body weight of mice was recorded twice a week. […] Upon termination, bone marrow, spinal cord, adrenal glands and kidneys were collected and examined for ICAM-1 expression on tumor cells. To distinguish cells of human versus murine origin, an anti-mouse CD45 mAb was used CD45. […] In addition, cells were stained with AF647 conjugated anti ICAM-1 mAb and thereafter analyzed in a FACS LSRII. Bone marrow was mechanically dissociated to a single cell suspension whereas adrenal glands, kidneys and spinal cord cells were prepared using a combination of mechanistic dissociation and dispase/collagenase digestion (Gibco, France). Prior to the experiment, dispase and collagenase treatments were shown not to effect ICAM-1 levels on MM cell lines.

[2] = system: ARH-77 cells; experiment: Disseminated scid/ARH-77 model of multiple myeloma; assay type: in vivo, scid mice; conditions: i.v. on Days 7, 10, 13, 16; antibody 2 mg/kg, bortezomib 0.5 mg/kg; vs control treatment
Description: ARH-77 cells or RPMI-8226 were injected intravenously into the SCID mice. (A) ARH-77 model. Animals received intravenous injections with antibody at 2 mg/kg or bortezomib (Velcade) at 0.5 mg/kg on Days 7, 10, 13, and 16 (as indicated by arrows in the graph). (B) RPMI-8226-model. B11 or control mAb was administered i.v at 2 mg/kg, twice weekly for 8 weeks, bortezomid, at 1 mg/kg, once weekly for 8 weeks, lenalidomide p.o with 2 mg/kg for 2 cycles consisting of 5 days of treatment and 2 days of wash out, melphalan i.v at 3 mg/kg, once weekly for 8 weeks, and dexamethasone (DXH) at 6 mg/kg/inj 3 times/week for 2 consecutive weeks. There were 6-10 mice per treatment group. Statistical significance was calculated using Log-rank Graphpad Prism software and determined at ***p<0.001. (C) To study the ICAM-1 level on human cells, the cells from different organs were stained and gated for CD38+/mCD45−/B11+. Left panel indicates the percentage of B11 positive cells in CD38+/mCD45 population and right panel the mean fluorescent intensity of the positive cells.
The anti-myeloma effect of B11 was examined in a disseminated model of multiple myeloma. The early and advanced disseminated model of multiple myeloma was performed at Oncodesign, Dijon, France. Briefly: 1×10^6 (early) or 5×10^6 (advanced) ARH-77 tumor cells in 200 μL of RPMI 1640 were injected intravenously (i.v) into the caudal vein of female scid mice (D0). Tumor cell injections were performed twenty four to forty eight hours after a whole body irradiation of mice (1.8 Gy, ^60Co, INRA, BRETENNIERES). The treatment was started at D5 RPMI-8226 model or D7 (ARH-77 model) […]. B11 or control mAb was administered i.v. at 2 mg/kg, twice weekly for 8 weeks, bortezomib, at 1 mg/kg, once weekly for 8 weeks, lenalidomide p.o with 2 mg/kg for 2 cycles consisting of 5 days of treatment and 2 days of wash out, melphalan i.v. at 3 mg/kg, once weekly for 8 weeks, and dexamethasone at 6 mg/kg 1 injected 3 times a week for 2 consecutive weeks.
The disseminated model of scid/ARH-77 is a well-established experimental model that resembles human multiple myeloma disease progression and disease manifestation in many respects (33). We utilized this model to further characterize IgG B11 anti-myeloma activity (FIG. 6A). Intravenous injection of irradiated scid mice with 1×10^6 ARH-77 cells was previously shown to result in their dissemination and establishment in mouse bone-marrow, and resulting osteolytic bone-lesions and hypercalcemia, and ultimately, in animal paralysis or difficulty of breathing at which time animals were immediately sacrificed. […]

[3] = system: ICAM-1 expressing tumor cell lines; experiment: Complement-dependent cytotoxicity (CDC) in tumor cell lines; assay type: cell-based; conditions: panel of ICAM-1 expressing tumor cell lines
Description: Target cells were harvested and incubated in RPMI medium with antibodies at 5 μg/mL or at titrated concentrations between 0.01-100 μg/mL for 60 min on ice. Cells were thereafter washed and resuspended in cold medium before dispension into flow cytometry tubes. Treatments were performed in triplicates. Human serum, normal or heat-inactivated, (Sigma, Sweden) was added to tubes and the samples were incubated for 2 h at 37° C. After completed incubation ToPo-Pro-3 was added at a final concentration of 0.3 μM and cells were analyzed for membrane permeabilization using flow cytometry.

[4] = system: ARH-77 tumors; experiment: Advanced (established, palpable tumors) scid/ARH-77 xenograft model; conditions: IgG B11 effective even at 100-fold lower dose (0.2 mg/kg) than rituximab
Description: Mice were anaesthetized with a mixture of sevofluran and oxygen prior to myeloma cell inoculation and 1-5×10^6 myeloma cells were then subcutaneously injected in a volume of 100 μl into the left flank. Treatment with antibodies by intraperitonial (i.p.) injections was started either the day after cell inoculation (prophylactic model) or when tumors reached a size of approximately 100 mm^3 (established model). Antibodies were administrated in PBS in a total volume of 200 μL. Treatment with PBS or isotype control was used as control. Tumors were measured with a digital calliper and the tumor volumes were calculated according to formula: width^2×length×0.52. Animals were sacrificed when the tumor sizes reached the ethical limit of 1.5 cm. Surviving mice were sacrificed after a maximum of 5 months. Blood samples collected from the vena cava were centrifuged at 2500 g for 15 min to obtain serum and the samples were stored at −20° C. Tumors were removed for immunohistochemistry, snap frozen and were kept at −85° C.

[5] = system: ARH-77 cells; experiment: Subcutaneous scid/ARH-77 xenograft, treatment from the day after cell inoculation (prophylactic model); conditions: for anti-tumor activities of IgG B11 isotype switch variants (rank order): twice weekly treatment, s.c. ARH-77
Description: Tumor cells were injected subcutaneously into the left flank of SCID mice. Mice received twice-weekly intraperitoneal injections with B11, control antibody or rituximab at doses of 20, 2 and/or 0.2 mg/kg commencing one day after tumor cell inoculation. There were 8 to 10 animals per treatment group. (A) Tumor volume as a function of antibody dose. (B) Kaplan-Meier survival graph as a function of antibody dose. […] Statistical significance was calculated relative to control antibody treatment using Kruskal-Wallis Test (Nonparametric ANOVA) with Dunn's Multiple Comparisons Test (tumor volume) or the log-rank test (mouse survival) using Graphpad Instat or Prism software, respectively. Statistical significance was considered for *p<0.05, **p<0.01, and ***p<0.001.
Tumor cells were injected subcutaneously into the left flank of SCID mice. Mice received twice-weekly intraperitoneal injections with B11 at doses of 0.02-20 mg/kg commencing day after tumor cell inoculation. There were 8-10 animals per treatment group. (A) Tumor volume as a function of antibody dose. (B) Kaplan-Meier survival graph as a function of antibody dose. Statistical significance was calculated relative to control antibody treatment using Kruskal-Wallis Test (Nonparametric ANOVA) with Dunn's Multiple Comparisons Test (tumor volume) or the log-rank test (mouse survival) using Graphpad Instat or Prism software, respectively. Statistical significance was considered for *p<0.05, **p<0.01, and ***p<0.001. Graphs illustrate representative experiments out of several performed.
(A) ARH-77 cells were injected subcutaneously into the left flank of SCID mice (n=8 per group). Mice were treated with the different B11 isotypes twice weekly. […] Statistical significance was calculated relative to control antibody treatment using Kruskal-Wallis Test (Nonparametric ANOVA) with Dunn's Multiple Comparisons Test. Statistical significance was considered for *p<0.05, **p<0.01, and ***p<0.001.
Mice were anaesthetized with a mixture of sevofluran and oxygen prior to myeloma cell inoculation and 1-5×10^6 myeloma cells were then subcutaneously injected in a volume of 100 μl into the left flank. Treatment with antibodies by intraperitonial (i.p.) injections was started either the day after cell inoculation (prophylactic model) or when tumors reached a size of approximately 100 mm^3 (established model).

[6] = system: HUVEC and HMVEC endothelial cells; experiment: PCD in normal ICAM-1 expressing endothelial cells; assay type: cell-based; conditions: resting or activated HUVEC/HMVEC
Description: Target cells were seeded in 96-well culture plates at a density of 2×10^6 cells/mL culture medium. Titrated concentrations of IgG1 B11 or different negative and positive control antibodies were added to the cells, in the absence or presence of anti-human Fab fragment (Jackson ImmunoResearch) for cross-linking. The cells were then incubated for 16 hours at 37° C. in a humidified atmosphere of 5% CO2. The cells were harvested and stained for Annexin V-488/Propidium Iodide (Invitrogen, Sweden) and analysed using flow cytometer (FACS Calibur, BD Bioscience).

[7] = target: T1, human FcγRIIIa (Homo sapiens, UniProt P08637); experiment: B11 isotype variant binding to FcγR (Biacore), human FcγRIIIa
T1 construct: made in house; host or cells: HEK293E (transient, adherent)
T1 sequence (P08637 17-254): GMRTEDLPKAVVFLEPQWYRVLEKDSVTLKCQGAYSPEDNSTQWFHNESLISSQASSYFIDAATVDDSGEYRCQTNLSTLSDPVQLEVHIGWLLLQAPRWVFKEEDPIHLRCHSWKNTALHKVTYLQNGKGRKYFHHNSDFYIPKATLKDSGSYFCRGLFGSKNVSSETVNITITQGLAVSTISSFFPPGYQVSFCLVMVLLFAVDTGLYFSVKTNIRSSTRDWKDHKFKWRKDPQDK
Description: His-tagged human FcγRIIIa or mouse FcγRIV were expressed transient in adherent HEK293E cells, purified using Ni-NTA chromatography and characterized using SDS-PAGE and/or Biacore. Surface plasmon resonance (SPR) measurements were performed using a Biacore 3000 instrument. Goat α-human-F(ab)′2 F(ab)′2 fragment (Jackson laboratories) was immobilised with a CM-5 chip using a standard amine coupling protocol. IgG1 B11, IgG4 B11, or 297Q B11 were diluted to 15 and 60 μg/mL respectively and added to the surface at […] for 3 min. His tagged human FcγRIIIa or mouse FcγRIV were pre-incubated with an α-HIS antibody (R&D Systems) at a 2:1 molar ratio before addition to the chip surface, 30 μL/min, 1 min. After each cycle the surface was regenerated twice with glycine buffer pH 1.7.

[8] = system: B lymphoma cell line (CL-01); experiment: Antibody-dependent cell-mediated cytotoxicity (ADCC) with natural killer effector cells; assay type: cell-based; conditions: human Natural Killer effector cells
Source text: Buffy coats from human donors (ordered through Blodcentralen, Lund) were used to isolate peripheral blood mononuclear cells (PBMCs), and subsequently NK cells. Briefly, peripheral blood components were separated using Ficoll Paque PLUS (Amersham Biosciences, Sweden) in LeucoSep tubes (Greiner Bio-One). The PBMC fraction was removed and thoroughly washed in ice-cold DPBS (Invitrogen), before magnetic labeling and separation of the NK cell population using positive or negative NK cell isolation kits and MACS LS columns (Miltenyi Biotec). The purity of the obtained NK cell fractions was analyzed using flow cytometry, after staining with α-CD56 antibodies (BD Biosciences). Target cells were harvested, and incubated in medium with or without the respective antibodies (2 μg/mL) for 60 min on ice. Cells were thereafter washed and resuspended in cold medium before dispension into FACS tubes. Subsequently, isolated NK cells were diluted in ADCC medium and dispensed together with the respective antibody-coated target cells at varying effector/target cell ratios (40:1, 20:1, 5:1 and 1:1). All experiments were performed in triplicates. After completed incubation ToPo-Pro-3 dye and counting beads (Invitrogen) were added and cells were analyzed for membrane permeabilization using flow cytometry.

[9] = Serum antibody levels of treated xenografted mice (ELISA); assay type: in vivo; conditions: Dose 2 mg/kg; serum at end of experimentation
Description: We next performed a dose-titration experiment to establish IgG B11 in vivo potency and the minimal dose achieving maximal anti-tumor activity, using the scid/ARH-77 model system. […] Mouse serum antibody trough concentrations were determined by ELISA at the end of experimentation. Trough antibody concentrations were then plotted against percent of maximal in vivo anti-tumour activity, and against percent of maximal ICAM-1 receptor occupancy and tumour cell PCD at corresponding antibody concentrations in vitro (FIGS. 3C, 3D, 3E, 3F and 3G). Strikingly, a near perfect correlation between antibody concentration and in vitro tumour cell receptor occupancy, in vitro tumor cell PCD, and in vivo anti-tumour activity was observed, consistent with ICAM-1 dependent direct cell cytotoxicity underlying in vivo anti-tumour activity.

N[C@@H](Cc1ccc(N(CCCl)CCCl)cc1)C(=O)O [melphalan]
ICAM-1 expression on tumor cells after treatment ([1]; listed as AIKERAN®): still expressed at unchanged, high levels
ICAM-1 expression on tumor cells after treatment ([1]; listed as alkeran): retained

CC(C)C[C@H](NC(=O)[C@H](Cc1ccccc1)NC(=O)c1cnccn1)B(O)O [bortezomib, reference compound]
animal survival [2]: did not significantly enhance animal survival
time to symptomatic disease onset [2]: insignificantly delayed disease onset
ICAM-1 expression on tumor cells after treatment ([1]; listed as VELCADE®): still expressed at unchanged, high levels
ICAM-1 expression on tumor cells after treatment ([1]; listed as bortesomib): retained

Nc1cccc2c1CN(C1CCC(=O)NC1=O)C2=O (stereo not drawn) [lenalidomide]
ICAM-1 expression on tumor cells after treatment ([1]; listed as Revlimid®): still expressed at unchanged, high levels
ICAM-1 expression on tumor cells after treatment ([1]; listed as revlimid): retained

rituximab [reference compound]
induction of CDC [3]: effectively induced CDC
animal survival [4]: incapable of reducing tumor growth or promoting animal survival
tumor growth [4]: incapable of reducing tumor growth
tumor growth ([5]; 20 mg/kg twice weekly i.p., commencing one day after tumor cell inoculation): significant anti-tumor activity albeit less efficaciously so compared to IgG B11

CC(=O)O[C@H]1C(=O)[C@@]2(C)[C@H]([C@H](OC(=O)c3ccccc3)[C@]3(O)C[C@H](OC(=O)[C@H](O)[C@@H](NC(=O)c4ccccc4)c4ccccc4)C(C)=C1C3(C)C)[C@]1(OC(C)=O)CO[C@@H]1C[C@@H]2O [paclitaxel, reference compound]
programmed cell death of normal endothelial cells [6]: induced significant endothelial cell and B cell programmed cell death

B1: 297Q B11: FcγR-binding deficient mutant IgG1 (N297Q IgG1) isotype switch variant of B11 (antibody, V domains shown)
VH: EVQLLESGGGLVQPGGSLRLSCAASGFTFSNAWMSWVRQAPGKGLEWVAFIWYDGSNKYYADSVKGRFTISRDNSKNTLYLQMNSLRAEDTAVYYCARYSGWYFDYWGQGTLVTVSS
VL: QSVLTQPPSASGTPGQRVTISCTGSSSNIGAGYDVHWYQQLPGTAPKLLIYDNNNRPSGVPDRFSGSKSGTSASLAISGLRSEDEADYYCQSYDSSLSAWLFGGGTKLTVLG
binding to human FcγRIIIa [7]: did not bind to human FcγRIIIa
ADCC of target tumor cells [8]: did not mediate ADCC of target tumor cells
In vivo IgG Levels [9]: 9.6 ± 3. μg/mL
anti-tumor activities of IgG B11 isotype switch variants (rank order) [5]: increased in the order of IgG1N297Q<IgG4<IgG1

B2: IgG4 B11: human IgG4 isotype switch variant of B11 (antibody, V domains shown)
VH: EVQLLESGGGLVQPGGSLRLSCAASGFTFSNAWMSWVRQAPGKGLEWVAFIWYDGSNKYYADSVKGRFTISRDNSKNTLYLQMNSLRAEDTAVYYCARYSGWYFDYWGQGTLVTVSS
VL: QSVLTQPPSASGTPGQRVTISCTGSSSNIGAGYDVHWYQQLPGTAPKLLIYDNNNRPSGVPDRFSGSKSGTSASLAISGLRSEDEADYYCQSYDSSLSAWLFGGGTKLTVLG
binding to human FcγRIIIa [7]: did not bind to human FcγRIIIa
ADCC of target tumor cells [8]: did not mediate ADCC of target tumor cells
In vivo IgG Levels [9]: 13 ± 3.1 µg/mL
anti-tumor activities of IgG B11 isotype switch variants (rank order) [5]: increased in the order of IgG1N297Q<IgG4<IgG1
